Results reported in US20250243170A1, “REMIBRUTINIB DRUG SUBSTANCE AND DRUG PRODUCT SUBSTANTIALLY FREE OF NITROSAMINE IMPURITY” (NOVARTIS AG, priority 2024, published 2025).
Several values for one entry are separate records, joined by “and”; a condition that tells them apart may be missing. Equal entries are not always repeated. Entries after “also recorded” stand apart in the source; their conditions may differ.

Tests used:
[1] = Stability of intermediate F8: nitrosamine content upon air exposure; assay type: physicochemical
Protocol: (§1) • Limit-test by LC-MS (SIM mode), AJS-ES, positive mode, SIM Ion: 483.2 [M+H]+ • Column: YMC-Triart C18, 100×3.0 mm, particle size 1.9 μm, 12 nm • Mobile phase A: Dissolve 0.315 g of Ammonium formate in 1000 ml of water, add 0.5 ml of formic acid • Mobile phase B: Methanol • Sample solvent: Methanol+0.2% (v/v) Formic acid • Sample solution: approx. 100 mg of the sample in 20 mL • Flow: 0.6 mL/min • Injection volume: 3 μL • Autosampler cooled, 8° C. • Column temperature. 80° C. • Gradient: […]

[2] = Stability of F8: nitrosamine content after 12 months storage; assay type: physicochemical; details: for growth of nitrosamine-content upon storage / change of nitrosamine-content upon storage: 12M; for Nitrosamine content in F8: double polyethylene-bags
Protocol: as §1
(§2) The impact of protective gas (nitrogen) for storage vs storage in non-protected atmosphere, of light exposed vs dark conditions and the effect of temperature was investigated. In addition, the stability study samples pulled after 12 M of storage at different temperature and humidity were included into the assessment.

[3] = Additional stress testing of F8 (inert gas, open vial, light); assay type: physicochemical; details: for formation of nitrosamine upon storage: several days, room temperature
Source text: as §2

[4] = Accelerated predictive stability (APS) of LOU064 drug substance, open dish; assay type: physicochemical; details: for Nitrosamine impurity: open dish
Protocol: as §1, with “0.5 mL” for “0.5 ml”
A statistical based approach, Accelerated Predictive Stability (APS), using the humidity modified Arrhenius equation [Waterman and al., International Journal of Pharmaceutics 293 (1-2), 101-125 (2005)] is applied to understand stability behavior and predict the retest period. […] Short studies are conducted on open dish samples of representative batch(es) of drug substance at accelerated conditions using a wide range of temperatures and humidity with the goal of reaching the specification limit for the identified retest period limiting attributes at each condition as detailed below. […] The humidity corrected Arrhenius equation reflects both the influence of the temperature, and the moisture on the kinetics of the degradation product formation. The resulting open-dish data are fitted to a humidity-corrected Arrhenius equation^1 using ASAPprime® (current version 6.0): […]
3 batches of LOU064 drug substance were placed in open dish under the protocol summarized below:
(§3) The pulled samples were analyzed by HPLC-MS as per method described in example 1 and reported below in tables 8 and 9.

[5] = APS of LOU064 drug substance, closed vessel with or without nitrogen purge; assay type: physicochemical
Protocol: as §1, with “0.5 mL” for “0.5 ml”
Samples of batches of LOU064 drug substance were prepared in duplicated in closed container, with one sample being purged with nitrogen and the other not.
as §3

[6] = system: Salmonella typhimurium strain TA98; experiment: Enhanced Ames Test (EAT), strain TA98; details: TA98, presence of hamster S-9
Protocol: (§4) N-(3-(6-amino-5-(2(methyl)(nitroso)amino)ethoxy)pyrimidin-4-yl)-5-fluoro-2-methylphenyl)-4-cyclopropyl-2-fluorobenzamide was evaluated in the EAT performed under GLP following the EMA and FDA guidance (2023) for the EAT conditions for N-nitrosamines.
(§5) In this study N-(3-(6-amino-5-(2(methyl)(nitroso)amino)ethoxy)pyrimidin-4-yl)-5-fluoro-2-methylphenyl)-4-cyclopropyl-2-fluorobenzamide was evaluated for mutations in Salmonella typhimurium strains TA98, TA100, TA1535 and TA1537 and Escherichia coli strain WP2 uvrA pKM101, both in the absence and presence of 30% rat and hamster metabolic activation (β-naphthoflavone/phenobarbital-induced rat and hamster liver post-mitochondrial S-9 fraction). The test used pre-incubation method (30 minutes). N-(3-(6-amino-5-(2(methyl)(nitroso)amino)ethoxy)pyrimidin-4-yl)-5-fluoro-2-methylphenyl)-4-cyclopropyl-2-fluorobenzamide was formulated in dimethyl sulfoxide (DMSO) at concentrations of 5, 16, 50, 160, 500, 1600 and 5000 μg/plate.
(§6) Following the recommendations of the EAT, in addition to the concurrent strain-specific positive controls, two nitrosamine positive controls, i.e. N-nitrosodiethylamine (NDEA) and N-methyl-N-nitroso-(2-phenylethyl)amine (MNPA) were used that are known to be mutagenic in the presence of S-9.

[7] = system: Salmonella typhimurium strain TA1535; experiment: Enhanced Ames Test (EAT), strain TA1535; details: TA1535, presence of hamster S-9
Protocol: as §4, §5, §6

[8] = system: Salmonella typhimurium strain TA100; experiment: Enhanced Ames Test (EAT), strain TA100
Protocol: as §4, §5, §6

[9] = Formulation analyses of EAT dosing formulations in DMSO; assay type: physicochemical; details: 6 hrs at room temperature
[10] = system: Salmonella typhimurium strains TA98, TA100, TA1535 and TA1537 and Escherichia coli strain WP2 uvrA pKM101; experiment: Enhanced Ames Test (EAT), all tester strains; assay type: cell-based
Protocol: The test used pre-incubation method (30 minutes).

SMILES: CNCCOc1c(N)ncnc1-c1cc(F)cc(NC(=O)c2ccc(C3CC3)cc2F)c1C [F8]
- Nitrosamine in F8 ([1]; Analyzed after 52 h air exp.): 533 ppb
- Nitrosamine in F8 ([1]; Analyzed directly after weighting the sample): 86 ppb
- growth of nitrosamine-content upon storage ([2]; 30° C./65% RH): > 100%
- growth of nitrosamine-content upon storage ([2]; 40° C./75% RH): > 100%
- change of nitrosamine-content upon storage ([2]; cold (5° C.)): only a minor rise
- change of nitrosamine-content upon storage ([2]; frozen (−20° C.)): no increase
- Nitrosamine content in F8 ([2]; 12 months, 5° C.): 323 ppb
- Nitrosamine content in F8 ([2]; 12 months, 30° C., 65% RH): 595 ppb
- Nitrosamine content in F8 ([2]; 12 months, 40° C., 75% RH): 647 ppb
- Nitrosamine content in F8 ([2]; 12 months, −20° C.): 276 ppb
- Nitrosamine content in F8 ([2]; T0): 300 ppb
- effect of exposure to light on nitrosamine formation ([3]; light exposed vs dark): slightly accelerate conversion of F8 into nitrosamine
- formation of nitrosamine upon storage ([3]; open vial): rapid increase
- formation of nitrosamine upon storage ([3]; stored under inert gas): only a minor, yet constant formation of nitrosamine

SMILES: C=CC(=O)N(C)CCOc1c(N)ncnc1-c1cc(F)cc(NC(=O)c2ccc(C3CC3)cc2F)c1C [LOU064 drug substance, N-(3-(6-Amino-5-(2-(N-methylacrylamido)ethoxy)pyrimidin-4-yl)-5-fluoro-2-methylphenyl)-4-cyclopropyl-2-fluorobenzamide]
- stability behavior of the nitrosamine impurity ([4]; all APS open dish conditions): stable
- Nitrosamine impurity ([4]; 50° C., 75% RH, 14 days): 74.9 ppb
- Nitrosamine impurity ([4]; 50° C., 75% RH, 21 days): 75.8 ppb
- Nitrosamine impurity ([4]; 50° C., 75% RH, 28 days): 106.5 ppb and 106.8 ppb
- Nitrosamine impurity ([4]; 60° C., 11% RH, 21 days): 87.1 ppb
- Nitrosamine impurity ([4]; 60° C., 11% RH, 28 days): 113.5 ppb
- Nitrosamine impurity ([4]; 60° C., 50% RH, 14 days): 77.0 ppb
- Nitrosamine impurity ([4]; 60° C., 50% RH, 28 days): 106.6 ppb
- Nitrosamine impurity ([4]; 60° C., 75% RH, 14 days): 69.8 ppb
- Nitrosamine impurity ([4]; 60° C., 75% RH, 21 days): 82.7 ppb
- Nitrosamine impurity ([4]; 60° C., 75% RH, 28 days): 119.1 ppb
- Nitrosamine impurity ([4]; 70° C., 31% RH, 14 days): 77.9 ppb
- Nitrosamine impurity ([4]; 70° C., 31% RH, 28 days): 113.3 ppb
- Nitrosamine impurity ([4]; 70° C., 50% RH, 21 days): 83.2 ppb
- Nitrosamine impurity ([4]; 70° C., 50% RH, 28 days): 108.3 ppb
- Nitrosamine impurity ([4]; 70° C., 75% RH, 14 days): 82.6 ppb
- Nitrosamine impurity ([4]; 70° C., 75% RH, 21 days): 83.2 ppb
- Nitrosamine impurity ([4]; 80° C., 51% RH, 7 days): 105.3 ppb
- Nitrosamine impurity ([4]; 80° C., 51% RH, 21 days): 75.5 ppb
- Nitrosamine impurity ([4]; initial, 0 days): 99.1 ppb
- nitrosamine, stored closed under nitrogen versus closed without nitrogen ([5]; 60-80° C., up to 27 days): no difference observed beyond analytical variability
- Nitrosamine without Nitrogen purge ([5]; 60° C., 21 days): 72.5 ppb
- nitrosamine with Nitrogen purge ([5]; 60° C., 21 days): 86.5 ppb
- Nitrosamine without Nitrogen purge ([5]; 60° C., 27 days): 109.8 ppb
- nitrosamine with Nitrogen purge ([5]; 60° C., 27 days): 110.4 ppb
- Nitrosamine without Nitrogen purge ([5]; 70° C., 21 days): 67.0 ppb
- nitrosamine with Nitrogen purge ([5]; 70° C., 21 days): 76.6 ppb
- Nitrosamine without Nitrogen purge ([5]; 70° C., 27 days): 116.0 ppb
- nitrosamine with Nitrogen purge ([5]; 70° C., 27 days): 109.4 ppb
- Nitrosamine without Nitrogen purge ([5]; 80° C., 21 days): 59.6 ppb
- nitrosamine with Nitrogen purge ([5]; 80° C., 21 days): 54.8 ppb
- Nitrosamine without Nitrogen purge ([5]; 80° C., 27 days): 114.7 ppb
- nitrosamine with Nitrogen purge ([5]; 80° C., 27 days): 119.2 ppb
- Nitrosamine without Nitrogen purge ([5]; initial, 0 days): 99.1 ppb
- nitrosamine with Nitrogen purge ([5]; initial, 0 days): 99.1 ppb

SMILES: CN(CCc1ccccc1)N=O [MNPA, N-methyl-N-nitroso-(2-phenylethyl)amine]
- increase in revertant numbers [6]: up to 1.9 fold

SMILES: Cc1c(NC(=O)c2ccc(C3CC3)cc2F)cc(F)cc1-c1ncnc(N)c1OCCN(C)N=O [N-(3-(6-amino-5-(2(methyl)(nitroso)amino)ethoxy)pyrimidin-4-yl)-5-fluoro-2-methylphenyl)-4-cyclopropyl-2-fluorobenzamide]
- increase in revertant numbers [7]: ≥ 3 fold
- increase in revertant numbers ([8]; TA100, presence of hamster S-9): ≥ 2 fold
- stability and homogenicity in the formulations [9]: demonstrated stability and homogenicity
- mutagenicity in the presence of rat S-9 ([10]; 30% rat S-9): not mutagenic
- Enhanced Ames Test (EAT) result ([10]; GLP, EMA and FDA guidance (2023) EAT conditions for N-nitrosamines, pre-incubation 30 minutes, 5-5000 μg/plate): positive; also recorded: mutagenic under sensitive metabolic conditions
- mutagenicity without metabolic activation ([10]; absence of S-9): not mutagenic
- Precipitation observed at ([10]; all tester strains, absence and presence of S-9, formulated in DMSO): 1600 μg/plate and/or 5000 μg/plate

SMILES: CCN(CC)N=O [NDEA, N-nitrosodiethylamine, reference compound]
- increase in revertant numbers ([8]; TA100, presence of 30% rat S-9): > 2 fold
